From ChEMBL document CHEMBL1126452, “Synthesis of stereochemically defined phosphonamidate-containing peptides: Inhibitors for the HIV-1 proteinase” (Bioorg Med Chem Lett, 1992)

Molecular target: Human immunodeficiency virus type 1 protease (Human immunodeficiency virus 1, UniProt Q72874)
Assay: Inhibitory concentration against HIV-1 Protease at pH 5.6 and at 37 degrees C

| SMILES | IC50 [µM] |
| --- | --- |
| CCC(C)[C@H](NC(=O)[C@@H]1CCCN1P(=O)(OC)[C@H](Cc1ccccc1)NC(=O)[C@H](CC(N)=O)NC(=O)OC(C)(C)C)C(=O)NCC(C)C (single isomer, unassigned; 2a) | 141 |
| CCC(C)[C@H](NC(=O)[C@@H]1CCCN1P(=O)(OC)C(Cc1ccccc1)NC(=O)[C@H](CC(N)=O)NC(=O)OC(C)(C)C)C(=O)NCC(C)C (single isomer, unassigned) | 43.2 |
| CCC(C)[C@H](NC(=O)[C@@H]1CCCN1P(=O)(O)C(Cc1ccccc1)NC(=O)[C@H](CC(N)=O)NC(=O)OC(C)(C)C)C(=O)NCC(C)C (stereo not given in full) | 118 |
| CCC(C)[C@H](NC(=O)[C@@H]1CCCN1P(=O)(OC)[C@@H](Cc1ccccc1)NC(=O)[C@H](CC(N)=O)NC(=O)OC(C)(C)C)C(=O)NCC(C)C (single isomer, unassigned) | 576 |
| CCC(C)[C@H](NC(=O)[C@@H]1CCCN1P(=O)(OC)[C@H](Cc1ccccc1)NC(=O)[C@H](CC(N)=O)NC(=O)OC(C)(C)C)C(=O)NCC(C)C (single isomer, unassigned; 2d) | 134 |
